56 molecules from PubChem BioAssay AID1645862 (Buhrlage Lab, Dana-Farber Cancer Institute and Novartis …, 2021) can be followed below.

The assay concerns the target Ubiquitin carboxyl-terminal hydrolase 8 (Homo sapiens) (UniProt P40818). In words: Ubiquitin-specific protease 8 inhibitors, concentration-effect, biochemical, validation of initial actives (AID 1645862).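 Also: potency reflects inhibition of USP8 cleavage of a ubiquitin rhodamine substrate.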 The note with it: recombinant USP8 deubiquitinase activity assay.

Activity calls are given as the source filed them. No rule for the calls is given here. Bridge positions count the residues as written; N and C are the ends. Square brackets hold non-standard residues; d marks the D form. Peptide text beside a SMILES is read from it. * marks the point of attachment. ξ: configuration not given here. d(aIle) = CC[C@H](C)[C@@H](N)C(=O)O; d(aThr) = C[C@@H](O)[C@@H](N)C(=O)O; X1 = CCCCCCCCCCCC(O)CC(=O)*; ξL = CC(C)CC(N)C(=O)O

Sequence of Ubiquitin carboxyl-terminal hydrolase 8 (Homo sapiens) (P40818 whole entry, looked up): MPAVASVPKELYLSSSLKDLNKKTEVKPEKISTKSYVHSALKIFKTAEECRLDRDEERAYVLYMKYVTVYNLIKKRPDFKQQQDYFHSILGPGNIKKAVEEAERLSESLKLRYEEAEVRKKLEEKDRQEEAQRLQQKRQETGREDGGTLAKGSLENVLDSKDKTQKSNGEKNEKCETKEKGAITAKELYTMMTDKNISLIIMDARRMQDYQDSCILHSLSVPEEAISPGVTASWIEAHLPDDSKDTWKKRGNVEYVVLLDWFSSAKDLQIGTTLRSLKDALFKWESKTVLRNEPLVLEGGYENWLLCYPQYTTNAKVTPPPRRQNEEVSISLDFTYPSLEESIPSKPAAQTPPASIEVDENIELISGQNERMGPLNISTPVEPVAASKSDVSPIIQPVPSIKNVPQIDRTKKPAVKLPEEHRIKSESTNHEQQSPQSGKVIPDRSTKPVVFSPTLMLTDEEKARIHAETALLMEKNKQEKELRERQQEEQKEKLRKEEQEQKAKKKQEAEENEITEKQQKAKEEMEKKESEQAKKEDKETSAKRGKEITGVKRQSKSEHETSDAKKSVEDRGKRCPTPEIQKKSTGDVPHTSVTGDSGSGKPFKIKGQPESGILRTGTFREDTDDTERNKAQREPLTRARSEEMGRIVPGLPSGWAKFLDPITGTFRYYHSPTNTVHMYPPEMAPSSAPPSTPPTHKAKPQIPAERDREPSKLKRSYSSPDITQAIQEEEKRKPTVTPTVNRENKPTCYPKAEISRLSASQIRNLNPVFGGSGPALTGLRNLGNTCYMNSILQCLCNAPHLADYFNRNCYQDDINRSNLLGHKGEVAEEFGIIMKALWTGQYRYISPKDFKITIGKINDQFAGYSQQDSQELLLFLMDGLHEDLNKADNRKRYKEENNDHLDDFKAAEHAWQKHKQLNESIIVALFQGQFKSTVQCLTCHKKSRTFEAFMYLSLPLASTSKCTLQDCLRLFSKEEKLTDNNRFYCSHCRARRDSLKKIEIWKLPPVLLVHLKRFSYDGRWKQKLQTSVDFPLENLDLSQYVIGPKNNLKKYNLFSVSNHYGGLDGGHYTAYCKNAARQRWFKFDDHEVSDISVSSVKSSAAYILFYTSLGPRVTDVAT

The IC50 is the point on the concentration scale where inhibition reaches its midpoint. Turning to `CCOc1ccc2c(c1)c(=O)c(C(=O)c1ccc(F)cc1)cn2CC(=O)Nc1ccccc1`, the IC50 is > 40 µM (inactive).
For `CCc1ccc(S(=O)(=O)Nc2ccc(-c3nnc(-c4ccccc4)o3)cc2)cc1` the value was > 40 µM (inactive); for `Cc1ccc(NC(=O)c2nnn(CC(=O)Nc3cccc(C)c3C)c2N)cc1C`, > 40 µM (inactive); for `FC(F)(F)c1ccc(Nc2nnnc3ccccc23)cc1`, > 40 µM (inactive).
As for `CCOc1ccc2[nH]c(=O)c(-c3nc4ccc(C)cn4c3NCc3ccccc3)cc2c1`, the IC50 is > 40 µM (inactive).
To `O=C(CCn1c(=O)c2ccccc2n(Cc2ccccc2F)c1=O)NCc1ccco1` belongs > 40 µM (inactive); to `O=C(c1cc2occc2c(Nc2ccc(F)cc2)n1)N1CCN(c2ccccc2)CC1`, > 40 µM (inactive); to `FC(F)(F)c1cccc(Nc2nc(-c3ccccn3)nc3ccccc23)c1`, > 40 µM (inactive).
For `CCCCCCCCCCCC(O)CC(=O)N[C@@H](CC(C)C)C(=O)N[C@H](CCC(=O)O)C(=O)N[C@H]1C(=O)N[C@H]([C@@H](C)CC)C(=O)NC(CC(C)C)C(=O)N[C@H](CO)C(=O)N[C@@H](CC(C)C)C(=O)N[C@@H](CC(C)C)C(=O)N[C@H](CO)C(=O)N[C@@H](C(C)C)C(=O)O[C@@H]1C` (stereo partly specified) (X1-L[dE][d(aThr)][d(aIle)][ξL][dS]LL[dS]V; ester 3-C) the value was > 40 µM (inactive); for `Cc1cc(C(=O)Nc2cc([N+](=O)[O-])cc3oc(-c4ccccc4)cc23)on1`, > 40 µM (inactive); for `Cn1c(=O)[nH]c2nncnc2c1=O`, 20.7 µM.
For `CCN(Cc1ccccc1)C(=O)C1CCN(Cc2ccc(OC)c(OC)c2OC)CC1`, the IC50 was > 40 µM (inactive).
To `O=c1cc(Cc2ccccc2)nc2c(-c3ccccc3)c(COc3ccccc3)[nH]n12` belongs > 40 µM (inactive); to `COc1ccc(C(=O)COC(=O)c2cccc(NC(=O)c3ccc(Cl)cc3)c2)cc1`, > 40 µM (inactive).
`Cc1ccc(NC(=O)Cn2c(=O)n(CC(=O)NCCc3ccccc3)c(=O)c3sccc32)cc1C`: the IC50 is > 40 µM (inactive).
To `Cc1sc2ccn(C)c(=O)c2c1C(=O)NC1CCCC1` belongs 2.18 µM.
On to `COC(=O)c1ccc2c(=O)n(CCCCCC(=O)NCc3cccc(Cl)c3)c(=O)[nH]c2c1`, for which the IC50 is > 40 µM (inactive).
As to `Cc1cc(C)c2nc3c(cc2c1)CN(Cc1ccco1)C(=O)O3`, the IC50 was > 40 µM (inactive).
To `CCOc1ccc2c(c1)c(=O)c(C(=O)c1ccc(C)cc1)cn2CC(=O)Nc1ccc(OC)c(OC)c1` belongs > 40 µM (inactive); to `COc1ccc2nc(N3CC(C(=O)Nc4ccc(C(N)=O)cc4)C3)sc2c1`, > 40 µM (inactive).
In the case of `Cc1ccc(NC(=O)Nc2ccc(C)n(CC(=O)Nc3ccc(C)cc3C)c2=O)cc1`, the IC50 was 26 µM.
With `CC(=O)c1ccc(NC(=O)CSc2nc(-c3ccccc3)nc3c2COC(C)(C)C3)cc1`, the IC50 was > 40 µM (inactive).
To `COc1ccccc1NC(=O)CSC1=NC2(CCCCC2)Nc2ccccc21` belongs > 40 µM (inactive); to `CCN(c1ccc(NC(=O)COC(=O)c2cccnc2Nc2cccc(C(F)(F)F)c2)cc1)C(C)C`, > 40 µM (inactive).
To `CC(NC(=O)c1ccccc1)c1nc2ccccc2n1CC(=O)Nc1ccc(F)cc1` (stereo unspecified) belongs > 40 µM (inactive).
As for `O=C(Cn1ncc2c(=O)oc3ccccc3c21)NCc1ccc2c(c1)OCO2`, the IC50 is > 40 µM (inactive).
Turning to `CCOc1ccc(C2/C(=C(\O)c3ccccc3)C(=O)C(=O)N2c2nc3ccc(F)cc3s2)cc1` (stereo unspecified), the IC50 was > 40 µM (inactive).
Regarding `O=C(CCCn1c(=O)c2cc(Cl)ccc2n(CC(=O)Nc2cccc(F)c2)c1=O)NCc1ccco1`, the IC50 is > 40 µM (inactive).
To `CCCCCCCCCCCC1=C(O)C(=O)C=C(O)C1=O` belongs 4.69 µM; to `COc1ccc(-c2noc(C3(c4ccc(F)cc4)CCOCC3)n2)cc1`, > 40 µM (inactive); to `Cc1cccc(C(=O)Nc2cccc(SC(C(=O)Nc3ccc(Cl)c(C(=O)O)c3)c3ccccc3)c2)c1` (stereo unspecified), 23.4 µM.
In the case of `COc1ccc(-c2cc3nc([C@H](C)NC(=O)CC4CCCC4)nn3cn2)cc1`, the IC50 is > 40 µM (inactive).
To `O=C(c1cc(Cl)c(Cl)[nH]1)c1cc(Cl)cc(Cl)c1O` belongs > 40 µM (inactive).
To `O=C(Cn1c(=O)n(CCC(=O)NC2CCCC2)c(=O)c2ccccc21)NCc1ccccc1Cl` belongs > 40 µM (inactive); to `Cc1cccc(C)c1NC(=O)CN1C(=O)CC(c2ccccc2)=Nc2ccccc21`, > 40 µM (inactive); to `COc1ccccc1NC(=O)Cn1cc(C(=O)c2ccc(C)cc2)c(=O)c2cc(Cl)ccc21`, > 40 µM (inactive).
For `N=C1/C(=C/c2cn(Cc3ccc(F)cc3)c3ccccc23)C(=O)N=C2SC(Cc3ccccc3)=NN12` the value was > 40 µM (inactive); for `Cc1ncc(CO)c2c1Oc1nc(-c3cccc(Cl)c3)nc(SCC(=O)N3CCCCC3)c1C2`, > 40 µM (inactive); for `Cc1ccc(NC(=O)Cn2cncc(-c3nc(-c4ccccc4)cs3)c2=O)cc1F`, > 40 µM (inactive).
Regarding `O=C(CN1C(=O)c2ccccc2C1=O)Nc1nc(-c2ccc(Br)cc2)cs1`, the IC50 was > 40 µM (inactive).
Turning to `Cc1ccc(NC(=O)COc2ccccc2/C=C2/NC(=O)N(Cc3ccc(F)cc3)C2=O)cc1`, the IC50 was > 40 µM (inactive).
For `O=C(NCc1ccc2c(c1)OCO2)c1cc2c(s1)CCC2` the value was 16.1 µM; for `N#Cc1cccc(NC(=O)COC(=O)c2n[nH]c3ccccc23)c1`, > 40 µM (inactive); for `COC(=O)c1ccccc1NC(=O)C1CCCN(c2nnc(-n3cccc3)s2)C1` (stereo unspecified), > 40 µM (inactive).
As to `C[C@H](Cc1cc2c(cc1O)OCO2)[C@@H](C)Cc1cc2c(cc1O)OCO2`, the IC50 is 33.2 µM.
To `O=C(CC1C(=O)Nc2nc3ccccc3n21)Nc1cccc2ccccc12` (stereo unspecified) belongs > 40 µM (inactive); to `COc1cccc(C(=O)Nc2ccc(SC(C(=O)Nc3ccccc3)c3ccccc3)cc2)c1` (stereo unspecified), > 40 µM (inactive).
On to `Cc1cc(N2CCN(c3ncccn3)CC2)nc2ccc(NC(=O)c3ccncc3)cc12`, for which the IC50 was > 40 µM (inactive).
For `COc1ccc(Cn2c(=O)[nH]c3cc(C(=O)NCCCN4CCN(c5cccc(Cl)c5)CC4)ccc3c2=O)cc1` the value was > 40 µM (inactive); for `Cc1cc(OCC(=O)Nc2ccccc2C(=O)Nc2ccccc2)ccc1Cl`, > 40 µM (inactive); for `COc1cccc(C2c3[nH]c4ccccc4c3C[C@@H]3C(=O)N(C4CC4)CC(=O)N23)c1` (stereo partly specified), > 40 µM (inactive).
On to `CC(c1ccccc1)N1CC(O)=C(c2nc3ccccc3s2)C1=N` (stereo unspecified), for which the IC50 was > 40 µM (inactive).
On to `Nc1ccc(C(=O)OCC(=O)NC2CCCc3ccccc32)cc1[N+](=O)[O-]` (stereo unspecified), for which the IC50 was > 40 µM (inactive).
To `Cc1ccc(CNC(=O)Cn2c(=O)n(CCCC(=O)NCc3ccc(F)cc3)c(=O)c3ccccc32)cc1` belongs > 40 µM (inactive); to `O=C1Cc2ccccc2C(=O)N1c1ccc2c(c1)OCO2`, 38.3 µM.
To `COC(=O)c1ccccc1NC(=O)Cn1c(=O)n(CCCC(=O)NCc2ccco2)c(=O)c2ccccc21` belongs > 40 µM (inactive).
